How the values were obtained:
[1] = Fraction unbound in hepatocytes, Rapid Equilibrium Dialysis (RED) device; type: in vitro ADME; details: human, heat inactivated hepatocytes, RED device
Description: Fraction Unbound in Hepatocytes. The estimation of the fraction unbound in hepatocytes at equilibrium can be obtained using multiple techniques: heat inactivated hepatocytes (3); linear regression obtained using the logD7.4 (4); parameter estimation (1, 3, 5, 6) or as separate binding rate constants determined experimentally (7). […] The RED device works with low volumes across a medium chamber (500 µL, white) and incubation chamber containing the hepatocytes (300 µL, red), and as such has been reported to even out the non-specific binding (NSB) between the membrane and wells, thereby improving recovery (8). The free fraction in the incubation (fu.inc) is calculated as:
fu.inc= [medium chamber] Whiteincubation chamber(Red) . (Eq.S1)
The amount of non-specific binding (NSB) to the labware is important to understand the recovery from the RED device experiment to evaluate the reliability of fu.inc: […]

[2] = Semimechanistic PBPK model simulation in simulated healthy volunteers; parameters: species or system human; details: PBPK model value
Excerpt: Uptake is inhibited by the opposing drug in X 3 via the respective uptake concentration at half of the maximum uptake velocity (K m.up.X) shown as the inhibition constant (K I.up). Passive movement of drug into and out of the liver is through clearances P dif.X and P def.X, respectively. Both drugs are cleared through biliary excretion (CLbi.X) into the gallbladder (X 5), and into X 2 where they can be reabsorbed.
The micro‐rate constants for transporter‐mediated uptake and passive uptake were scaled to macro‐rate constants (see Table 2 ) and then empirically scaled up to the human body (83 kg, healthy adult; ^23 see Table 2 ).
The ODE PBPK model (see Figure 1 for schematic and Supplemental Material for the set of ODEs) was developed using desolve ^27 in R‐studio (v1.1.463, R‐Studio Inc., Boston, MA) running R‐project version 3.6.0 ^28 and was similar to that used for eltrombopag and rosuvastatin. ^5 All figures in this article were generated either within Inkscape (0.93, Inkscape.org, Boston, MA) or cowplot, ggplot2, ^29 , ^30 extrafont, ^31 and Cairo. ^32

[3] = parameters: method as in earlier work; details: eltrombopag; minimum value of FDA draft guidance when plasma protein binding ≥ 0.99; cited from earlier work
[4] = cited from earlier work

## CC1=NN(c2ccc(C)c(C)c2)C(=O)/C1=N\Nc1cccc(-c2cccc(C(=O)O)c2)c1O [eltrombopag, Eltrombopag]
[1]; overnight, pitavastatin 0.3, 10 and 100 nmol/ml, eltrombopag 30 nmol/ml, read-out: f u.inc, fraction unbound in the incubation
  fraction unbound: 0.04
[1]; read-out: analytical recovery
  recovery: 10%
[2]; Eqs. 10 and 11
  CLmet.X, metabolic clearance: 6.8 mL/min/liver
[2]; Eqs. 12 and 13
  CLbi.X, biliary clearance: 13 mL/min/liver
[3]
  f u.pl, fraction unbound in the plasma set for static R value: 0.01
[4]
  binding of eltrombopag to plasma proteins: 99.8%
  f u.pl.E, eltrombopag fraction unbound in the plasma: 0.002
[4]; eltrombopag
  blood:plasma ratio: 0.78

Reference: paper PMC7179958 (CPT: Pharmacometrics & Systems Pharmacology, 2020)
